Our source for the IC50 values is US10160747B2, “Compounds and methods for kinase modulation, and indications therefor” (Plexxikon Inc., priority 2016, dated 2018).

The target of one test is T1, c-KIT (Homo sapiens, UniProt P10721).
T1 construct: purchased Millipore 14-559K
Kind of test: c-KIT recombinant enzyme kinase assay (AlphaScreen). It counts as biochemical. As to conditions: 100 ATP, 8 pt. The method, boiled down:
(§1)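 Recombinant kinase phosphorylates 30 nM biotinylated poly(Glu4-Tyr) peptide; ATP is 10 μM for FLT3-ITD and FLT3-D835Y, 100 μM for c-KIT. Phosphotyrosine detected by AlphaScreen (streptavidin donor, PY20 acceptor beads, 10 μg/mL), 580 nm signal after 680 nm excitation; IC50 from signal decrease.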
(In general: Alpha assays give light when donor and acceptor beads are brought close together.)

Another test concerns the target T2, FLT3-D835Y (Homo sapiens, UniProt P36888, D835Y).
T2 construct: purchased Invitrogen PV3967
T2 sequence (P36888 27-993 D835Y): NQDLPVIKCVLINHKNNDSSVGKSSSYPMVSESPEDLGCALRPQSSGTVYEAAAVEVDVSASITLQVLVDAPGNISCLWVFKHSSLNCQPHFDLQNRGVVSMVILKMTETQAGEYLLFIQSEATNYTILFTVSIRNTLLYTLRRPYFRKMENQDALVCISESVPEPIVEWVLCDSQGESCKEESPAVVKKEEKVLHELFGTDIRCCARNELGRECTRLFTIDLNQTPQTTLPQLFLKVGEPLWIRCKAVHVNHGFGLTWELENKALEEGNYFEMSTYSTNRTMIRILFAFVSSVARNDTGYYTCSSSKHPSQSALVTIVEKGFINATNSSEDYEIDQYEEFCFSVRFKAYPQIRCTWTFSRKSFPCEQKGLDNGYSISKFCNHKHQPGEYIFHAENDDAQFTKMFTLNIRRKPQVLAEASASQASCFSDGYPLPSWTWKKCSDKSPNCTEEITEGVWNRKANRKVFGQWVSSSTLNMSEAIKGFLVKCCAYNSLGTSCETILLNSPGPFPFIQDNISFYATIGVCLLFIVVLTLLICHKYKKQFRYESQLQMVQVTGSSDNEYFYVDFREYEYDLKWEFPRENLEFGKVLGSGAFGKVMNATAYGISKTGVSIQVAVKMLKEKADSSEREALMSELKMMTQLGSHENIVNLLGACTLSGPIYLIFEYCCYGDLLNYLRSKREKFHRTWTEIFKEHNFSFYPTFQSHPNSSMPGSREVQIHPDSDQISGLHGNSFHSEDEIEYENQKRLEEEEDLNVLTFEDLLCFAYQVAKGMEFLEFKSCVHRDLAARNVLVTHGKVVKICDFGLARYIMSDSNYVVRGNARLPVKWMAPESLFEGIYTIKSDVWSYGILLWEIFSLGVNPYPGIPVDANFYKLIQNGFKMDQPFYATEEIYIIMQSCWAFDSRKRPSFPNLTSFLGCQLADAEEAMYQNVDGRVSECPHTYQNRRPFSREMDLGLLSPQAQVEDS
Kind of test: FLT3-D835Y recombinant enzyme kinase assay (AlphaScreen). The settings on record: 8 pt, GMean. It counts as biochemical. In short, it runs like this: as §1

T1 sequence (P10721 26-976): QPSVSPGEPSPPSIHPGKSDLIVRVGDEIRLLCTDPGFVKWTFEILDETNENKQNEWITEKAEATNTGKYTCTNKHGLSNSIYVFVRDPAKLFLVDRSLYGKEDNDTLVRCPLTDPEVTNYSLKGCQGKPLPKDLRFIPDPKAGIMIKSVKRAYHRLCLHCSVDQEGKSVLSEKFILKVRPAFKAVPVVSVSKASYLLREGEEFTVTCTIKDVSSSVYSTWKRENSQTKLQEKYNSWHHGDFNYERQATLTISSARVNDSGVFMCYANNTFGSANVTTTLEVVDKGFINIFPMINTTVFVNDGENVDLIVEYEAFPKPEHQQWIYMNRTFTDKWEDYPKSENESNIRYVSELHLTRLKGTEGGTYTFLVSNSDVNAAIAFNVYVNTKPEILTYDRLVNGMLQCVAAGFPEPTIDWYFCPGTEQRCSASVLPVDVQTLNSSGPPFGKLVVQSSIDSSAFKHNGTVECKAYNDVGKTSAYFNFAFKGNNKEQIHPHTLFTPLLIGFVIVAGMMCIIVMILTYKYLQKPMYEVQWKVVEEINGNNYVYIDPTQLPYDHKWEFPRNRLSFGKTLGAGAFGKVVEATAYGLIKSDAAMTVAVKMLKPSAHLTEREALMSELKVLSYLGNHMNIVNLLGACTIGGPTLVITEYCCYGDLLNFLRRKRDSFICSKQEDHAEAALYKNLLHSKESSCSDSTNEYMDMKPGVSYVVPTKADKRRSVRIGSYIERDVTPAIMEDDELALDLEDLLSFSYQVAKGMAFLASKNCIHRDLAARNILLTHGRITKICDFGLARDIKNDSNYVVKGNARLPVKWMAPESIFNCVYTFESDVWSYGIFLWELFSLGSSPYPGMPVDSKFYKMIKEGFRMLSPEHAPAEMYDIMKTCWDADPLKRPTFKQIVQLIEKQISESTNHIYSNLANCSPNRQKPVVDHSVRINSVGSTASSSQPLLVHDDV

As for `O=C(Cc1ccc(-c2cnc(Nc3cnn(C4CC4)c3)nc2)cc1F)Nc1cc(C(F)(F)F)ccn1` [Compound P-0244, 2-[4-[2-[(1-cyclopropylpyrazol-4-yl)amino]pyrimidin-5-yl]-2-fluoro-phenyl]-N-[4-(trifluoromethyl)-2-pyridyl]acetamide], the IC50 on c-KIT and on FLT3-D835Y was 0.0001 to 10 µM throughout.

Regarding `COCCn1cc(Nc2ncc(-c3ccc(CC(=O)Nc4cc(C(F)(F)F)ccn4)cc3)cn2)cn1` [Compound P-0222, 2-[4-[2-[[1-(2-methoxyethyl)pyrazol-4-yl]amino]pyrimidin-5-yl]phenyl]-N-[4-(trifluoromethyl)-2-pyridyl]acetamide], the IC50 at c-KIT and at FLT3-D835Y was 0.0001 to 10 µM in each case.

In the case of `Cc1ncc(NC(=O)Cc2ccc(-c3cnc4[nH]c(C#CC(C)(C)O)cc4c3)cc2)cc1C(F)(F)F` [Compound P-0220, 2-[4-[2-(3-hydroxy-3-methyl-but-1-ynyl)-1H-pyrrolo[2,3-b]pyridin-5-yl]phenyl]-N-[6-methyl-5-(trifluoromethyl)-3-pyridyl]acetamide], the half-inhibitory concentration (IC50) at c-KIT and at FLT3-D835Y was 0.0001 to 10 µM in each case.

As to `O=C(Cc1ccc(-c2cnc(Nc3cnn(C4CC4)c3)nc2)cc1)Nc1ccc(C(F)(F)F)nc1` [Compound P-0235, 2-[4-[2-[(1-cyclopropylpyrazol-4-yl)amino]pyrimidin-5-yl]phenyl]-N-[6-(trifluoromethyl)-3-pyridyl]acetamide], the half-maximal inhibitory concentration (IC50) at c-KIT and on FLT3-D835Y was 0.0001 to 10 µM in each case.

Consider `COCCn1cc(Nc2ncc(-c3ccc(CC(=O)Nc4ccc(C(F)(F)F)nc4)c(F)c3)cn2)cn1` [Compound P-0268, 2-[2-fluoro-4-[2-[[1-(2-methoxyethyl)pyrazol-4-yl]amino]pyrimidin-5-yl]phenyl]-N-[6-(trifluoromethyl)-3-pyridyl]acetamide], for which the half-inhibitory concentration (IC50) at c-KIT and on FLT3-D835Y was 0.0001 to 10 µM each time.

For `O=C(Cc1ccc(-c2cnc(Nc3cnn(C4CC4)c3)nc2)cc1F)Nc1ccc(C(F)(F)F)nc1` [Compound P-0242, 2-[4-[2-[(1-cyclopropylpyrazol-4-yl)amino]pyrimidin-5-yl]-2-fluoro-phenyl]-N-[6-(trifluoromethyl)-3-pyridyl]acetamide], the concentration for half-maximal inhibition (IC50) on c-KIT and on FLT3-D835Y was 0.0001 to 10 µM in each case.

For the compound `COc1ncc(NC(=O)Cc2ccc(-c3cnc4[nH]nc(N)c4c3)cc2)cc1C(F)(F)F` [Compound P-0216, 2-(4-(3-amino-1H-pyrazolo[3,4-b]pyridin-5-yl)phenyl)-N-(6-methoxy-5-(trifluoromethyl)pyridin-3-yl)acetamide], the IC50 at c-KIT and at FLT3-D835Y was 0.0001 to 10 µM each time.

Regarding `Cn1cc(Nc2ncc(-c3ccc(CC(=O)Nc4cncc(C(F)(F)F)c4)cc3F)cn2)cn1` [Compound P-0205, 2-[3-fluoro-4-[2-[(1-methylpyrazol-4-yl)amino]pyrimidin-5-yl]phenyl]-N-[5-(trifluoromethyl)-3-pyridyl]acetamide], the 50% inhibitory concentration (IC50) at c-KIT and at FLT3-D835Y was 0.0001 to 10 µM in each case.

Turning to `COc1ncc(NC(=O)Cc2ccc(-c3cnc4[nH]nc(C5CC5)c4c3)cc2)cc1C(F)(F)F` [Compound P-0263, 2-[4-(3-cyclopropyl-1H-pyrazolo[3,4-b]pyridin-5-yl)phenyl]-N-[6-methoxy-5-(trifluoromethyl)-3-pyridyl]acetamide], the IC50 at c-KIT and on FLT3-D835Y was 0.0001 to 10 µM in each case.

`O=C(Cc1ccc(-c2cnc(Nc3cnn(C4CC4)c3)nc2)cc1)Nc1cnc(Cl)c(C(F)(F)F)c1` [Compound P-0233, N-[6-chloro-5-(trifluoromethyl)-3-pyridyl]-2-[4-[2-[(1-cyclopropylpyrazol-4-yl)amino]pyrimidin-5-yl]phenyl]acetamide]: the IC50 at c-KIT and on FLT3-D835Y was 0.0001 to 10 µM throughout.

Take `COCCn1cc(Nc2ncc(-c3ccc(CC(=O)Nc4cnc(OC)c(C(F)(F)F)c4)cc3)cn2)cn1` [Compound P-0271, 2-[4-[2-[[1-(2-methoxyethyl)pyrazol-4-yl]amino]pyrimidin-5-yl]phenyl]-N-[6-methoxy-5-(trifluoromethyl)-3-pyridyl]acetamide]: the IC50 at c-KIT and on FLT3-D835Y was 0.0001 to 10 µM in each case.

For the compound `COc1ncc(NC(=O)Cc2ccc(-c3cnc4[nH]c(-c5ccc(C#N)nc5)cc4c3)cc2F)cc1C(F)(F)F` [Compound P-0011, 2-[4-[2-(6-cyano-3-pyridyl)-1H-pyrrolo[2,3-b]pyridin-5-yl]-2-fluoro-phenyl]-N-[6-methoxy-5-(trifluoromethyl)-3-pyridyl]acetamide], the IC50 (in general, the midpoint of a concentration-inhibition curve) on FLT3-D835Y is 0.0001 to 10 µM.

Regarding `COc1ncc(NC(=O)Cc2ccc(-c3cnc4[nH]nc(N)c4c3)c(F)c2)cc1C(F)(F)F` [Compound P-0203, 2-[4-(3-amino-1H-pyrazolo[3,4-b]pyridin-5-yl)-3-fluoro-phenyl]-N-[6-methoxy-5-(trifluoromethyl)-3-pyridyl]acetamide], the half-maximal inhibitory concentration (IC50) on c-KIT and on FLT3-D835Y was 0.0001 to 10 µM throughout.

Turning to `CCn1cc(Nc2ncc(-c3ccc(CC(=O)Nc4ccc(C(F)(F)F)nc4)cc3)cn2)cn1` [Compound P-0252, 2-[4-[2-[(1-ethylpyrazol-4-yl)amino]pyrimidin-5-yl]phenyl]-N-[6-(trifluoromethyl)-3-pyridyl]acetamide], the IC50 at c-KIT and on FLT3-D835Y was 0.0001 to 10 µM in each case.

Turning to `CCOc1n[nH]c2ncc(-c3ccc(CC(=O)Nc4cnc(OC)c(C(F)(F)F)c4)cc3)cc12` [Compound P-0213, 2-(4-(3-ethoxy-1H-pyrazolo[3,4-b]pyridin-5-yl)phenyl)-N-(6-methoxy-5-(trifluoromethyl)pyridin-3-yl)acetamide], the IC50 at c-KIT and at FLT3-D835Y was 0.0001 to 10 µM throughout.

As to `O=C(Cc1ccc(-c2cnc(Nc3cnn(C4CC4)c3)nc2)cc1F)Nc1cnc(Cl)c(C(F)(F)F)c1` [Compound P-0240, N-[6-chloro-5-(trifluoromethyl)-3-pyridyl]-2-[4-[2-[(1-cyclopropylpyrazol-4-yl)amino]pyrimidin-5-yl]-2-fluoro-phenyl]acetamide], the IC50 on c-KIT and at FLT3-D835Y was 0.0001 to 10 µM each time.

For `CCn1cc(Nc2ncc(-c3ccc(CC(=O)Nc4cnc(OC)c(C(F)(F)F)c4)cc3)cn2)cn1` [Compound P-0253, 2-[4-[2-[(1-ethylpyrazol-4-yl)amino]pyrimidin-5-yl]phenyl]-N-[6-methoxy-5-(trifluoromethyl)-3-pyridyl]acetamide], the half-inhibitory concentration (IC50) at c-KIT and on FLT3-D835Y was 0.0001 to 10 µM each time.

`COc1ncc(NC(=O)Cc2ccc(-c3cnc4[nH]c(-c5ccnc(C#N)c5)cc4c3)c(F)c2)cc1C(F)(F)F` [Compound P-0016, 2-[4-[2-(2-cyano-4-pyridyl)-1H-pyrrolo[2,3-b]pyridin-5-yl]-3-fluoro-phenyl]-N-[6-methoxy-5-(trifluoromethyl)-3-pyridyl]acetamide]: at FLT3-D835Y, the IC50 was in the range of 0.0001 to 10 µM.

Turning to `COc1ncc(NC(=O)Cc2ccc(-c3cnc4[nH]c(C#Cc5cncn5C)cc4c3)cc2)cc1C(F)(F)F` [Compound P-0227, N-[6-methoxy-5-(trifluoromethyl)-3-pyridyl]-2-[4-[2-[2-(3-methylimidazol-4-yl)ethynyl]-1H-pyrrolo[2,3-b]pyridin-5-yl]phenyl]acetamide], the half-maximal inhibitory concentration (IC50) on FLT3-D835Y was 0.0001 to 10 µM.

In the case of `COc1ncc(NC(=O)Cc2ccc(-c3cnc4[nH]c(-c5ccc(C#N)nc5)cc4c3)c(F)c2)cc1C(F)(F)F` [Compound P-0014, 2-[4-[2-(6-cyano-3-pyridyl)-1H-pyrrolo[2,3-b]pyridin-5-yl]-3-fluoro-phenyl]-N-[6-methoxy-5-(trifluoromethyl)-3-pyridyl]acetamide], the concentration for half-maximal inhibition (IC50) on FLT3-D835Y was in the range of 0.0001 to 10 µM.

`COc1ncc(NC(=O)Cc2ccc(-c3cnc(Nc4cnn(C)c4)nc3)c(F)c2)cc1C(F)(F)F` [Compound P-0206, 2-[3-fluoro-4-[2-[(1-methylpyrazol-4-yl)amino]pyrimidin-5-yl]phenyl]-N-[6-methoxy-5-(trifluoromethyl)-3-pyridyl]acetamide]: on FLT3-D835Y, the half-inhibitory concentration (IC50) is 0.0001 to 10 µM.

Turning to `COc1ncc(NC(=O)Cc2ccc(-c3cnc4[nH]c(-c5cnn(C(F)F)c5)cc4c3)cc2F)cc1C(F)(F)F` [Compound P-0015, 2-[4-[2-[1-(difluoromethyl)pyrazol-4-yl]-1H-pyrrolo[2,3-b]pyridin-5-yl]-2-fluoro-phenyl]-N-[6-methoxy-5-(trifluoromethyl)-3-pyridyl]acetamide], the IC50 on FLT3-D835Y was in the range of 0.0001 to 10 µM.
